Legend:
Assay type in all cases: functional
[1] = tested on: Fusarium oxysporum; assay: Antifungal activity against Fusarium oxysporum f. sp. lupini at 1 ug/ml after 192 hrs relative to control; details: read-out: GI
[2] = tested on: Fusarium oxysporum; assay: Antifungal activity against Fusarium oxysporum f. sp. lupini at 1 ug/ml after 48 hrs
[3] = tested on: Fusarium oxysporum; assay: Antifungal activity against Fusarium oxysporum f. sp. lupini at 1 ug/ml after 192 hrs
[4] = tested on: Fusarium oxysporum; assay: Antifungal activity against Fusarium oxysporum f. sp. lupini at 20 ug/ml after 48 hrs
[5] = tested on: Fusarium oxysporum; assay: Antifungal activity against Fusarium oxysporum f. sp. lupini at 0.5 ug/ml after 48 hrs
[6] = tested on: Fusarium oxysporum; assay: Antifungal activity against Fusarium oxysporum f. sp. lupini at 20 ug/ml after 192 hrs relative to control; details: read-out: GI
[7] = tested on: Fusarium oxysporum; assay: Antifungal activity against Fusarium oxysporum f. sp. lupini at 1 ug/ml after 96 hrs
[8] = tested on: Fusarium oxysporum; assay: Antifungal activity against Fusarium oxysporum f. sp. lupini at 0.5 ug/ml after 96 hrs
[9] = tested on: Fusarium oxysporum; assay: Antifungal activity against Fusarium oxysporum f. sp. lupini at 0.1 ug/ml after 144 hrs
[10] = tested on: Fusarium oxysporum; assay: Antifungal activity against Fusarium oxysporum f. sp. lupini at 0.1 ug/ml after 192 hrs
[11] = tested on: Fusarium oxysporum; assay: Antifungal activity against Fusarium oxysporum f. sp. lupini at 0.1 ug/ml after 48 hrs
[12] = tested on: Fusarium oxysporum; assay: Antifungal activity against Fusarium oxysporum f. sp. lupini at 20 ug/ml after 192 hrs
[13] = tested on: Fusarium oxysporum; assay: Antifungal activity against Fusarium oxysporum f. sp. lupini at 0.5 ug/ml after 144 hrs
[14] = tested on: Fusarium oxysporum; assay: Antifungal activity against Fusarium oxysporum f. sp. lupini at 0.1 ug/ml after 192 hrs relative to control; details: read-out: GI
[15] = tested on: Fusarium oxysporum; assay: Antifungal activity against Fusarium oxysporum f. sp. lupini at 0.5 ug/ml after 192 hrs relative to control; details: read-out: GI
[16] = tested on: Fusarium oxysporum; assay: Antifungal activity against Fusarium oxysporum f. sp. lupini at 0.5 ug/ml after 192 hrs
[17] = tested on: Fusarium oxysporum; assay: Antifungal activity against Fusarium oxysporum f. sp. lupini at 1 ug/ml after 144 hrs
[18] = tested on: Fusarium oxysporum; assay: Antifungal activity against Fusarium oxysporum f. sp. lupini at 0.1 ug/ml after 96 hrs
[19] = tested on: Fusarium oxysporum; assay: Antifungal activity against Fusarium oxysporum f. sp. lupini at 20 ug/ml after 96 hrs
[20] = tested on: Fusarium oxysporum; assay: Antifungal activity against Fusarium oxysporum f. sp. lupini at 20 ug/ml after 144 hrs

| SMILES | inhibition of growth at 1 µg/mL [1] | Radial growth inhibition of fungi (Ā) (mm) [2] | Radial growth inhibition of fungi (Ā) (mm) [3] | Radial growth inhibition of fungi (Ā) (mm) [4] | Radial growth inhibition of fungi (Ā) (mm) [5] | inhibition of growth at 20 µg/mL [6] | Radial growth inhibition of fungi (Ā) (mm) [7] | Radial growth inhibition of fungi (Ā) (mm) [8] | Radial growth inhibition of fungi (Ā) (mm) [9] | Radial growth inhibition of fungi (Ā) (mm) [10] | Radial growth inhibition of fungi (Ā) (mm) [11] | Radial growth inhibition of fungi (Ā) (mm) [12] | Radial growth inhibition of fungi (Ā) (mm) [13] | inhibition of growth at 0.1 µg/mL [14] | inhibition of growth at 0.5 µg/mL [15] | Radial growth inhibition of fungi (Ā) (mm) [16] | Radial growth inhibition of fungi (Ā) (mm) [17] | Radial growth inhibition of fungi (Ā) (mm) [18] | Radial growth inhibition of fungi (Ā) (mm) [19] | Radial growth inhibition of fungi (Ā) (mm) [20] |
| --- | --- | --- | --- | --- | --- | --- | --- | --- | --- | --- | --- | --- | --- | --- | --- | --- | --- | --- | --- | --- |
| COCCOCCOCCN/C=C1\C(=O)C(O)=C(C(C)C)c2cc(C)c(-c3c(C)cc4c(c3O)/C(=C/NCCOCCOCCOC)C(=O)C(O)=C4C(C)C)c(O)c21 | 22.8% | 14.88 mm | 45.75 mm | 14.13 mm | 16.38 mm | 25.7% | 25 mm | 25.75 mm | 39.25 mm | 51.75 mm | 16.75 mm | 44 mm | 36.88 mm | 12.7% | 18.1% | 48.5 mm | 35.25 mm | 27 mm | 24.13 mm | 34.13 mm |
| Cc1cc2c(C(C)C)c(O)c(O)c(C=O)c2c(O)c1-c1c(C)cc2c(C(C)C)c(O)c(O)c(C=O)c2c1O [GOSSYPOL] | 20.3% | 17.25 mm | 47.25 mm | 14.88 mm | 18.63 mm | 22.4% | 26.25 mm | 27.88 mm | 42.75 mm | 55 mm | 19.63 mm | 46 mm | 39.5 mm | 7.2% | 14.8% | 50.5 mm | 36.75 mm | 30.63 mm | 25.25 mm | 35 mm |
| C=CCN/C=C1\C(=O)C(O)=C(C(C)C)c2cc(C)c(-c3c(C)cc4c(c3O)/C(=C/NCC=C)C(=O)C(O)=C4C(C)C)c(O)c21 | 20.7% | 17.13 mm | 47 mm | 14.63 mm | 18.13 mm | 22.6% | 26 mm | 27.25 mm | 41.63 mm | 53.75 mm | 19.25 mm | 45.88 mm | 38.88 mm | 9.3% | 15.6% | 50 mm | 36.63 mm | 29.88 mm | 24.75 mm | 34.63 mm |

Source: ChEMBL document CHEMBL1158404, “Antifungal activity of alkyl and heterocyclic aza-derivatives of gossypol as well as their complexes with NaClO4 against Fusarium oxysporum f. sp. lupini” (2009)
